For experiment [1], the system named is panel of 60 human tumor cell lines. Also on record: method as in PMID 19549304. To be noted: same cell line panel; cited from earlier work.
Experiment [2] concerns HTB-54 cells. Details: method as in PMID 36257283. To be noted: parent NSAIDs; cited from earlier work.
The subject of experiment [3] is HT-29 cells. Particulars: parent NSAIDs; cited from earlier work.
The test system of experiment [4] is MCF-7 cells. Details: method as in PMID 36257283. To be noted: parent NSAIDs; cited from earlier work.
The test system of experiment [5] is HTB-54 cells. Briefly: MTT cell viability assay, HTB-54. Format: cell-based. To be noted: for viability at 10 µM / IC50: HTB-54, 48 h, MTT; for viability at 10 µM: read-out: Cell growth % at 10 µM, HTB-54; for SI (lung): IC50 (BEAS-2B)/IC50 (HTB-54). How it is done:
(§1) The cell lines were obtained from the American Type Culture Collection (ATCC). Five tumor cell lines (MDA-MB-231, MCF-7, HCT116, HTB-54, and DU-145) and two non-tumorigenic cells (184B5 and BEAS-2B) were grown in RPMI 1640 medium (Gibco), and the HT-29 tumor cell line was grown in McCoy’s medium. Both mediums were supplemented with 10% fetal bovine serum (FBS; Gibco) and 1% antibiotics (10.00 units/mL penicillin and 10.00 μg/mL streptomycin; Gibco). Cells were preserved in tissue culture flasks at 37 °C and 5% CO2. The culture medium was replaced every three days.
(§2) The effect of each compound on cell viability was tested using the MTT assay. […] Selected compounds were then tested at seven different concentrations (0.5–100 μM) in MCF-7, HCT116, HT-29, HTB-54, 184B5 and BEAS-2B cells. Cells were seeded at 10^4 per well onto flat-bottomed 96-well culture plates. They were treated with either DMSO or increasing concentration of the corresponding compound for 48 h. Then, they were incubated with 20 μL of 3-(4,5-dimethylthiazol-2-yl)-2,5-diphenyltetrazolium bromide (MTT) (2 mg /mL stock; Aldrich) for 2,5 h and analyzed for their ability to generate a purple formazan dye. These formazan crystals were dissolved in 50 μL of DMSO. The absorbance was measured at a wavelength of 550 nm and the ratio of viable cells was calculated.
(§3) Results are expressed as cell viability % at 10 μM. Selectivity index were calculated as the ratio of the IC50 values determined for the non-malignant and the tumor cells in breast (IC50 (184B5)/IC50 (MCF-7)) and lung (IC50 (BEAS-2B)/IC50 (HTB-54)) cell lines. Data were obtained from at least three independent experiments performed in triplicates.
In general terms: Tetrazolium assays rely on reduction of a dye to a coloured formazan, in cell work by metabolically active cells.

For the next experiment, the system named is MDA-MB-231 cells. Nature of the experiment: MTT cell viability assay, MDA-MB-231. Format: cell-based. To be noted: Homo sapiens, MDA-MB-231, 48 h, read-out: Cell growth % at 10 µM, MDA-MB-231. How it is done:
as §1, §2, §3

The test system of the next experiment is DU-145 cells. Briefly: MTT cell viability assay, DU-145. Particulars: Homo sapiens, DU-145, 48 h, read-out: Cell growth % at 10 µM, DU-145. The format is cell-based. How it is done:
as §1, §2, §3

Experiment [6] has as its system HT-29 cells. Nature of the experiment: MTT cell viability assay, HT-29. Format: cell-based. To be noted: Homo sapiens; for viability at 10 µM: HT-29, 10 µM, 48 h, read-out: Cell growth % at 10 µM, HT-29; for IC50: HT-29, 48 h. How it is done: as §1, §2, §3
The next experiment concerns HCT116 cells. Briefly: MTT cell viability assay, HCT116. Format: cell-based. To be noted: Homo sapiens, HCT-116, 48 h. How it is done:
as §1, §2, §3

In experiment [7] the test system is MCF-7 cells. Briefly: MTT cell viability assay, MCF-7. Format: cell-based. Particulars: for IC50: Homo sapiens, MCF7, MTT, 48 h; for SI (breast): IC50 (184B5)/IC50 (MCF-7). How it is done:
as §1, §2, §3

The subject of another experiment is BEAS-2B cells. Nature of the experiment: MTT cell viability assay, BEAS-2B (non-tumorigenic). Format: cell-based. Particulars: Homo sapiens, 48 h, nonmalignant bronchial epithelium. How it is done:
as §1, §2, §3

For another experiment, the system named is 184B5 cells. Briefly: MTT cell viability assay, 184B5 (non-tumorigenic). The format is cell-based. Particulars: Homo sapiens, 48 h, nonmalignant mammary gland. How it is done: as §1, §2, §3
For experiment [8], the system named is HTB-54, DU-145, HT-29 and MDA-MB-231 cancer cell lines. Nature of the experiment: cells. To be noted: against the panel of the four cancer cell lines. Format: cell-based. How it is done:
as §1, §2
As a first approach, all the compounds were tested in vitro against lung (HTB-54), prostatic (DU-145), colon (HT-29), and triple-negative breast (MDA-MB-231) cancer cell lines at two concentrations (50 and 10 µM) for 48 h. Then, the MTT colorimetric assay was used to evaluate cell proliferation after the treatment. The data are expressed as the percentage of cell growth ± SD in at least three independent experiments performed in quadruplicates (Table S1).

Experiment [9] deals with T1, AChE (Rattus norvegicus, UniProt P37136).
T1 construct: from tissue; host or cells: frontal cortex of male Wistar rats (crude homogenate)
T1 sequence (P37136 32-614): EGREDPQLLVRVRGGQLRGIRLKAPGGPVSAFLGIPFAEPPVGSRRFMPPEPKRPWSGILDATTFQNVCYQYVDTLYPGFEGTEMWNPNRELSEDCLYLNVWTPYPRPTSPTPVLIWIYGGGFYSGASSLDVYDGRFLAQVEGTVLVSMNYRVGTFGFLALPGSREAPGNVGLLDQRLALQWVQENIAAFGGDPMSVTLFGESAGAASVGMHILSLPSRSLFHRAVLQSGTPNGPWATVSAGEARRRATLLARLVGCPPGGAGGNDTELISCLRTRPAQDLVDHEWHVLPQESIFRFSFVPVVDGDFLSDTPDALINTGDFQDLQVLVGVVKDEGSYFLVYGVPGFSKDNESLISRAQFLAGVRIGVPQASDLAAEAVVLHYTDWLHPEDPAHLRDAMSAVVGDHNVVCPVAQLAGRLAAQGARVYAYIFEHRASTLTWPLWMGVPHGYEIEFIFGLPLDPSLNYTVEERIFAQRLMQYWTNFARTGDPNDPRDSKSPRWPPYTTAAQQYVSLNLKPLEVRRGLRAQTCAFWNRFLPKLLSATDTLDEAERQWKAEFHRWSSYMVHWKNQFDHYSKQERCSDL
Briefly: AChE inhibition by Ellman's method (rat frontal cortex homogenate). To be noted: at 10^−6 M, Ellman's method. Format: biochemical. How it is done:
Frontal cortex tissue obtained from male Wistar rats was homogenized in 39 volumes of 75 mM sodium phosphate buffer (pH 7.4). A mixture of 260 μL containing the compounds assessed, acetylthiocholine iodide and 5 μL tissue homogenate was incubated for 8 min. The reaction was then terminated by adding 50 μL 3% (w/v) sodium dodecyl sulphate followed by 50 μL 0.2% (w/v) 5,5′-dithio-bis(2-nitrobenzoic) acid to produce the yellow anion of 5-thio-2-nitro-benzoic-acid. The extent of the color production was measured spectrophotometrically at 405 nm using Multiskan Ex (Thermo Electron Corporation). […] Results are expressed as the mean ± SD and each experiment was repeated three times.
A general note: In Ellman's method for cholinesterases, released thiocholine reacts with DTNB.

Experiment [10] concerns AChE. Briefly: AChE inhibition quoted from the literature. Format: biochemical. Particulars: AChE IC50 ratio to 14a.
Experiment [11] concerns AChE. Details: method as in PMID 25312723. To be noted: cited from earlier work.

The values below come from PMC9854712 (Antioxidants, 2023).

Usually GI50 stands for the concentration at which growth is held to half of that of the control. In general, IC50 refers to the concentration that inhibits the measured activity by half. A word on the inhibition: it is how much of the control response was suppressed.

Read-outs that look alike come from different tables or passages of the source. Some results are limits rather than exact numbers.

As for `O=c1[nH]cc(F)c(=O)[nH]1` [5-fluorouracil], the GI50 in experiment [1] is 57.5 µM.

On to `CC(=O)Oc1ccccc1C(=O)O` [ASA], for which the IC50 with HTB-54 cells [2], in the experiment on HT-29 cells [3] and with MCF-7 cells [4] was over 100 µM each time.

Consider `C=CC[Se]C(=O)C(C)c1ccc(CC(C)C)cc1` (centres unmarked) [Compound 15a], for which the viability at 10 µM in the experiment on HTB-54 cells [5] was 38 ± 7.1%; in the experiment on MDA-MB-231 cells it was 38 ± 5.4%; in the experiment on DU-145 cells, 19.1 ± 7%; in the experiment with HT-29 cells [6], 49 ± 7.2%; in [8], under 55%. The half-maximal inhibitory concentration (IC50) with HTB-54 cells [5] was 23.5 ± 5.8 µM; with HT-29 cells [6], 9.2 ± 0.7 µM; with HCT116 cells, 10.2 ± 0.1 µM; in the experiment on MCF-7 cells [7] it was 11.2 ± 0.2 µM; with BEAS-2B cells, 11.1 ± 2.6 µM; in the experiment with 184B5 cells it was 11.5 ± 1.4 µM. Also, the “SI (lung)” value with HTB-54 cells [5] turned out to be 0.5. For the same compound, the “SI (breast)” value in the experiment on MCF-7 cells [7] came out at 1.1. Also, 1 µM produced 19.3 ± 0.1% inhibition on AChE [9].

As to `C=CC[Se]C(=O)C(C)c1ccc2cc(OC)ccc2c1` [Compound 16a, Se-allyl (S)-2-(6-methoxynaphtalen-2-yl)propaneselenoate], the viability at 10 µM in the experiment with HTB-54 cells [5] was 30.9 ± 6.7%; with MDA-MB-231 cells it was 33.8 ± 5.6%; with DU-145 cells it was 18.8 ± 6.3%; in the experiment on HT-29 cells [6], 49.9 ± 5.6%; in experiment [8], under 55%. Further, the IC50 in the experiment with HTB-54 cells [5] stood at 9.9 ± 0.3 µM; in the experiment on HT-29 cells [6] it was 9.4 ± 0.6 µM; in the experiment on HCT116 cells, 27.1 ± 2.7 µM; with MCF-7 cells [7], 10.9 ± 1.3 µM; with BEAS-2B cells, 14.7 ± 8.7 µM; with 184B5 cells, 11.1 ± 1.1 µM. For the same compound, in the experiment with HTB-54 cells [5], the “SI (lung)” value was determined as 1.5. In the experiment on MCF-7 cells [7], the “SI (breast)” value came to 1.0. On AChE [9], the inhibition at 1 µM is 20.3 ± 4.2%.

Turning to `O=c1c2ccccc2[se]n1-c1ccccc1` [Ebselen, ebselen], in the experiment on AChE [10], the “fold higher IC50 than compound 14a” value is listed as 32 fold. Also, the IC50 with AChE [11] is 29 µM.

Consider `COc1ccc2c(c1)c(CC(=O)O)c(C)n2C(=O)c1ccc(Cl)cc1` [Indomethacin, 2-[1-(4-chlorobenzoyl)-5-methoxy-2-methylindol-3-yl] acetic acid], for which the IC50 in the experiment on HTB-54 cells [2], with HT-29 cells [3] and in the experiment on MCF-7 cells [4] was over 100 µM throughout.

As for `COc1ccc2cc([C@H](C)C(=O)O)ccc2c1` [Naproxen, (2S)-2-(6-methoxynaphtalen-2-yl) propanoic acid], the half-maximal inhibitory concentration (IC50) in the experiment with HTB-54 cells [2], in the experiment with HT-29 cells [3] and in the experiment with MCF-7 cells [4] was over 100 µM each time.

Consider `COc1cc2ncnc(Nc3ccc(F)c(Cl)c3)c2cc1OCCCN1CCOCC1` [gefitinib], for which the GI50 in experiment [1] is 3.24 µM.

Regarding `O=C1[O][Pt]2([NH][C@@H]3CCCC[C@H]3[NH]2)[O]C1=O` [oxaliplatin], in experiment [1], the 50% growth inhibitory concentration (GI50) was 2.89 µM.

As to selenepezil, the “fold lower IC50 than compound 14a” value in the experiment on AChE [10] is listed as 9 fold. The IC50 in the experiment on AChE [11] is 0.097 µM.
